Read-outs that look alike come from different tables or passages of the source.
Test system: HepG2 cells
Experiment: HepG2 cell proliferation assay (XTT)
Assay type: cell-based, human
Conditions: Homo sapiens
Description: HepG2 cells were obtained from the American Type Culture Collection (ATCC). Normal hepatocyte pool of cells was acquired from Xenotech. Cryopreserved cells in DMEM containing 5% DMSO were thawed and diluted 10-fold in phenol red free DMEM media containing 10% fetal bovine serum, 100 μg/ml penicillin/streptomycin, supplemented with Glutamax™ and sodium pyruvate. Subsequently, cells were centrifuged at 20 g for 10 minutes. The cells were resuspended in the same media with added Revitacell® to a concentration of […]. Ninety-six well cell culture treated flat bottom plates were seeded with 7.5×10^3 cells in 100 μl and incubated at 37° C., 7.5% CO2, >95% relative humidity for 18 hours to allow cellular adhesion after which media was replaced with like media (DMEM, IMDM, Williams E) containing 1 to 20% FBS and various test compounds (10 μg/ml to 100 ng/ml). After 48 hours (2 doublings of cells), sodium; 2-(2-methoxy-4-nitro-5-sulfonatophenyl)-3-(2-methoxy-4-nitro-5-sulfophenyl)-N-phenyltetrazol-3-ium-5-carboximidate (XTT) (300 μg/ml) was added, and cells incubated for 2 hours. Formazan production was measured at 450 nm on a Varioskan lux spectrophotometer. Non-specific absorption was measured at 660 nm and subtracted from the reference measurement at 450 nm. Experiments were performed in triplicates (n=3). […]
The objectives of this example are to, first, establish the procedure of a two-component interaction study; and second, establish a method of analysis to identify potential interactions among the two components/compounds. […] Following 48 hours of incubation, the IC50 values of various mixtures were obtained and compared with the pure compound's IC50 values and predicted/calculated IC50 values for the various mixtures. […]
Samples from the serial dilutions were analyzed by LC-MS/MS to orthogonally confirm concentrations. […]
To assess potential interactions, the IC50 values for individual cannabinoids in the control lanes were calculated and used to predict and IC50 value for the summation of their individual components.

SMILES: CNC(=O)c1cc(Oc2ccc(NC(=O)Nc3ccc(Cl)c(C(F)(F)F)c3)cc2)ccn1 [Sorafenib]
- IC50 (IMDM media with 20% FBS and 1% ethanol, read-out: predetermined IC50 concentrations): 12 µM
- IC50 (XTT, DMEM media with 20% FBS, 48 hour treatment, read-out: IC50 HepG2): 9.8 µg/mL

— patent US20260232699A1, “COMPOSITIONS OF A CANNABINOID AND A KINASE INHIBITOR FOR THE TREATMENT OF CANCER” (SINOVEDA CANADA INC., priority 2023, published 2026)
